Test results taken from ChEMBL document CHEMBL5338749, “Rapid Elaboration of Fragments into Leads Applied to Bromodomain-3 Extra-Terminal Domain” (J Med Chem, 2023).
“And” between values parts separate entries of the source, which are not always exact repeats. Identical values can stand only once. Each block holds one molecule with its values, some of them ahead of it.

Key:
[1] = molecular target: T1, Bromodomain-containing protein 3 (Homo sapiens, UniProt Q15059); assay: Binding affinity to 15N-labeled recombinant BRD3-ET domain (unknown origin) expressed in Escherichia coli Rosetta (DE3) pLysS assessed as dissociation constant by […] HSQC NMR analysis
Target sequence in this assay (Q15059 whole entry, the tested form may be a part): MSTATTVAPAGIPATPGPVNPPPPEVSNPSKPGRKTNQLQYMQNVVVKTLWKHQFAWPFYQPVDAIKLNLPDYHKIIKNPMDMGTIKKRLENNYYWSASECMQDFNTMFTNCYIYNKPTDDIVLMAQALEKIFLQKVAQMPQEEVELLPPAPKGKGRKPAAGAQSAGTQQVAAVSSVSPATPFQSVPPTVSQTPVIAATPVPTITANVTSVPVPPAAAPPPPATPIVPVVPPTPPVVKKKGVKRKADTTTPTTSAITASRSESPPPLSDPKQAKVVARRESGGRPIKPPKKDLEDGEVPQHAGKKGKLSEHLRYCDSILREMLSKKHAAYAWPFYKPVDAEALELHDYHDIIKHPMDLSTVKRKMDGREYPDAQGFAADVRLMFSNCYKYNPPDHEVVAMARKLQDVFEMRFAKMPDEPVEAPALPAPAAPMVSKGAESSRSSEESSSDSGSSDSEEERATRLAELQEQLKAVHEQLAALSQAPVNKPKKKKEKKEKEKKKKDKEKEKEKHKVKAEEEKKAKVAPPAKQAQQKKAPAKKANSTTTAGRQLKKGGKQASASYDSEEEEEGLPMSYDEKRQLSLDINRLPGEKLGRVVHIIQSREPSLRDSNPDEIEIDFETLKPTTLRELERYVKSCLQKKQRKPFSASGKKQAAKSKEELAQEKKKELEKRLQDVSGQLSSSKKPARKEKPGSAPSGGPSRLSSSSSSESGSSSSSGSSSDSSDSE

[2] = molecular target: T1, Bromodomain-containing protein 3; assay: Binding affinity to biotinylated BRD3-ET domain (unknown origin) expressed in Escherichia coli Rosetta (DE3) pLysS assessed as dissociation constant at 4 degreeC by SPR analysis
Target sequence in this assay (Q15059 whole entry, the tested form may be a part): as above

[3] = molecular target: T1, Bromodomain-containing protein 3; assay: Binding affinity to recombinant BRD3-ET domain (unknown origin) expressed in Escherichia coli Rosetta (DE3) pLysS assessed as dissociation constant by 1H- NMR analysis
Target sequence in this assay (Q15059 whole entry, the tested form may be a part): as above

[4] = molecular target: T1, Bromodomain-containing protein 3; assay: Binding affinity to biotinylated BRD3-ET domain (unknown origin) expressed in Escherichia coli Rosetta (DE3) pLysS assessed as dissociation off-rate constant at 4 degreeC by SPR analysis
Target sequence in this assay (Q15059 2-726 limits assumed): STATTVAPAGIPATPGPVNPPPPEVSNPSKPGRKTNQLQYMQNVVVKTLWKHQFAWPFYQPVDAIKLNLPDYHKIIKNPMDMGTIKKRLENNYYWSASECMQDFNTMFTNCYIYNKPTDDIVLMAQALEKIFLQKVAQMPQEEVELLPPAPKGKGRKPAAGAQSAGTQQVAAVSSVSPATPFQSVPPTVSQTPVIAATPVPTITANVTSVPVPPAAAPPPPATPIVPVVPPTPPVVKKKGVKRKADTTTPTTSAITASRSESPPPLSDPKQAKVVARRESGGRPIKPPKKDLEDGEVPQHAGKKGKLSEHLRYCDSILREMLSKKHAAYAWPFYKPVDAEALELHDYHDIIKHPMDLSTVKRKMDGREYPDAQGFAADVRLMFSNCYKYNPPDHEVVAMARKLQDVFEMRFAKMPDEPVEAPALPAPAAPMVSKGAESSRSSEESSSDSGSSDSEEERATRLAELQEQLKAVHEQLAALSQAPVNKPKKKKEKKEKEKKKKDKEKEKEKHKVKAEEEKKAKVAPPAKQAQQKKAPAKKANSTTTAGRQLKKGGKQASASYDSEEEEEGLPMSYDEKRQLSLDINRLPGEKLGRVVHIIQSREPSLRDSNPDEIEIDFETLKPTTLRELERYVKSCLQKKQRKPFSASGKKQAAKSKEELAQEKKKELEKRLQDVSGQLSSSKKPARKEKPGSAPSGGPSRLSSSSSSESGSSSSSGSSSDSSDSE

[5] = molecular target: T1, Bromodomain-containing protein 3; assay: Binding affinity to recombinant BRD3-ET domain (unknown origin) expressed in Escherichia coli Rosetta (DE3) pLysS assessed as dissociation constant by 19F- NMR analysis
Target sequence in this assay (Q15059 whole entry, the tested form may be a part): as the sequence (Q15059 whole entry, the tested form may be a part) above

SMILES: OC1CCCc2c1[nH]c1ccccc21 (stereo not given)
- Kd [1]: 230 µM
- Kd [2]: 380 µM

SMILES: O=C(NC1CCCc2c1[nH]c1ccc(F)cc21)[C@@H]1C=CCN1 (stereo not given in full) [listing 1 of 3 here]
- Kd [2]: 47 µM

SMILES: O=C(NC1CCCc2c1[nH]c1ccc(F)cc21)C1CCNC1 (stereo not given)
- Kd [2]: 31 µM
- Kd [3]: 54 µM

SMILES: CC(C)(C)OC(=O)N1CCC(CNC2CCCc3c2[nH]c2ccc(F)cc32)C1 (stereo not given)
- Kd [1]: 30 µM
- Kd [2]: 93 µM

SMILES: O=C(NC1CCCc2c1[nH]c1ccc(F)cc21)[C@@H]1C=CCN1 (stereo not given in full) [listing 2 of 3 here]
- K [4]: 0.13 s⁻¹ and 0.22 s⁻¹

SMILES: CC(=O)NC1CCCc2c1[nH]c1ccc(F)cc21 (stereo not given)
- Kd [1]: 150 µM
- Kd [2]: 260 µM

SMILES: CC(C)C[C@H](N)CC(=O)NC1CCCc2c1[nH]c1ccc(F)cc21 (stereo not given in full) [listing 1 of 3 here]
- Kd [3]: 39 µM

SMILES: O=C(CC1CCCNC1)NC1CCCc2c1[nH]c1ccc(F)cc21 (stereo not given)
- Kd [2]: 25 µM
- Kd [3]: 33 µM

SMILES: CC(C)(C)OC(=O)N1CCC(CNC2CCCc3c2[nH]c2ccc(F)cc32)CC1 (stereo not given)
- Kd [1]: 31 µM
- Kd [2]: 86 µM

SMILES: CC(C)C[C@H](N)CC(=O)NC1CCCc2c1[nH]c1ccc(F)cc21 (stereo not given in full) [listing 2 of 3 here]
- Kd [2]: 11 µM

SMILES: Fc1ccc2[nH]c3c(c2c1)CCCC3NCCC1CCCNC1 (stereo not given) [listing 1 of 3 here]
- K [4]: 0.28 s⁻¹

SMILES: CC(C)C[C@H](N)CC(=O)NC1CCCc2c1[nH]c1ccc(F)cc21 (stereo not given in full) [listing 3 of 3 here]
- K [4]: 0.26 s⁻¹ and 0.27 s⁻¹

SMILES: O=C(NC1CCCc2c1[nH]c1ccc(F)cc21)[C@@H]1C=CCN1 (stereo not given in full) [listing 3 of 3 here]
- Kd [1]: 64 µM

Next, values leading:

- K [4]: 0.3 s⁻¹ and 0.49 s⁻¹
SMILES: Fc1ccc2[nH]c3c(c2c1)CCCC3NCC1CCNCC1 (stereo not given) [listing 1 of 3 here]

- Kd [5]: 22 µM
- Kd [3]: 61 µM
SMILES: Fc1ccc2[nH]c3c(c2c1)CCCC3NCC1CCNCC1 (stereo not given) [listing 2 of 3 here]

- K [4]: 0.22 s⁻¹ and 0.33 s⁻¹
SMILES: Fc1ccc2[nH]c3c(c2c1)CCCC3NCC1CCNC1 (stereo not given) [listing 1 of 3 here]

- Kd [2]: 11 µM
SMILES: Fc1ccc2[nH]c3c(c2c1)CCCC3NCC1CCNC1 (stereo not given) [listing 2 of 3 here]

- Kd [5]: 18 µM
- Kd [3]: 24 µM
SMILES: Fc1ccc2[nH]c3c(c2c1)CCCC3NCCC1CCCNC1 (stereo not given) [listing 2 of 3 here]

- Kd [2]: 7.8 µM
SMILES: Fc1ccc2[nH]c3c(c2c1)CCCC3NCCC1CCCNC1 (stereo not given) [listing 3 of 3 here]

- Kd [5]: 68 µM
- Kd [3]: 93 µM
SMILES: Fc1ccc2[nH]c3c(c2c1)CCCC3NCC1CCNC1 (stereo not given) [listing 3 of 3 here]

- Kd [2]: 17 µM
SMILES: Fc1ccc2[nH]c3c(c2c1)CCCC3NCC1CCNCC1 (stereo not given) [listing 3 of 3 here]
